Reference: patent US20080208039A1, “System and method of performing therapeutic endovascular interventions” (Wisconsin Alumni Research Foundation, priority 2007, published 2008)

Test: Diffusion of a fluorescent probe in swollen gelatin gel by FRAP
Type: physicochemical
Text: To assess the stability of DTPA[Gd(III)] in the gelatin coating, the diffusion of a fluorescence probe in gelatin was studied by the technique of fluorescence recovery after photobleaching (FRAP). The instrument and data analysis scheme are described in Kim, S. H. and Yu, H., J. Phys. Chem. 1992, 96, 4034, which is hereby fully incorporated by reference. Fluorescein was used as the fluorescence probe due, in part, to its molecular size being roughly the same as that of DTPA[Gd(III)].
The focus of the study was to examine the possible retardation effects of gelatin concentration and cross-link density on the diffusion, which was determined at room temperature, i.e., below the gel point of gelatin. The diffusion of fluorescein probe slows down with the increase of gelatin concentration. The diffusion coefficient decreases from 1.5×10-10 to 9×10-12 m2s-1 when the concentration of gelatin increases from 9% to 40%. […] Accordingly, the probe diffusion is more likely controlled by the concentration of gelatin rather than the cross-link density. On the other hand, the cross-link density may determine the swelling ratio of gelatin, i.e., the concentration of gelatin in aqueous solution. […]

| fluorescence remaining in gelatin films after soaking (gelatin films soaked in water for 18 hours, including films not cross-linked) | time to diffuse out of the gelatin coating (coating thickness 60 μm, diffusion coefficient 9×10-12 m2s-1) | SMILES |
| --- | --- | --- |
| still fluorescence signal | – | O=C1OC2(c3ccc(O)cc3Oc3cc(O)ccc32)c2ccccc21 [fluorescein] |
| – | about 67 seconds | O=C(O)CN(CCN(CC(=O)O)CC(=O)O)CCN(CC(=O)O)CC(=O)O [DTPA, diethylenetriaminepentaacetic acid] |
